From ChEMBL document CHEMBL1212738, “Phenotypic and genotypic characterization of Enterobacteriaceae with decreased susceptibility to carbapenems: results from large hospital-based surveillance studies in China” (2010)
≈ marks a conversion by molar mass, not a printed value.

Assays:
Citrobacter freundii [1] = experiment: Antimicrobial activity against Citrobacter freundii SZ63T expressing IMP-4, qnrS1by CLSI method; format: functional
Escherichia coli [2] = experiment: Antimicrobial activity against carbapenem-resistant Escherichia coli HX74 deficient in TEM-1, CTX-M-14, CTX-M-3, aac(6')-Ibcr, ompC/F by CLSI method; format: functional
Klebsiella pneumoniae [3] = experiment: Antimicrobial activity against carbapenem-resistant Klebsiella pneumoniae PU104 deficient in TEM-1, SHV-11, CTX-M-15, qnrS1, ompK35/36 by CLSI method; format: functional
Klebsiella pneumoniae [4] = experiment: Antimicrobial activity against Klebsiella pneumoniae WH76 expressing IMP-4, TEM-1, SHV-14, CTX-M-3, qnrS1 by CLSI method; format: functional
Klebsiella pneumoniae [5] = experiment: Antimicrobial activity against carbapenem-resistant Klebsiella pneumoniae FZ47 deficient in IMP-8, TEM-1, SHV-11, CTX-M-14, qnrB2, aac(6')-Ib, ompK35/36 by CLSI method; format: functional
Klebsiella pneumoniae [6] = experiment: Antimicrobial activity against carbapenem-resistant Klebsiella pneumoniae GZ84 deficient in SHV-11, aac(6')-Ib-cr, ompK35 by CLSI method; format: functional
Klebsiella pneumoniae [7] = experiment: Antimicrobial activity against Klebsiella pneumoniae CY1T expressing SHV-11, DHA-1 by CLSI method; format: functional
Escherichia coli [8] = experiment: Antimicrobial activity against Escherichia coli C600 transconjugant GZ66T expressing SHV-11, DHA-1 by CLSI method
Klebsiella pneumoniae [9] = experiment: Antimicrobial activity against carbapenem-resistant Klebsiella pneumoniae ZJ70 deficient in KPC-2, SHV-11, CTX-M-14, ompK35/36 by CLSI method; format: functional
Klebsiella pneumoniae [10] = experiment: Antimicrobial activity against carbapenem-resistant Klebsiella pneumoniae ZJ68 deficient in CTX-M-15, ompK35/36 by CLSI method
Enterobacter cloacae [11] = experiment: Antimicrobial activity against carbapenem-resistant Enterobacter cloacae WH103 deficient in IMP-4, TEM-1, CTX-M-3, qnrS1, ompC by CLSI method; format: functional
Enterobacter cloacae [12] = experiment: Antimicrobial activity against carbapenem-resistant Enterobacter cloacae GX24 deficient in TEM-1, DHA-1, aac(6')-Ib, ompC by CLSI method; format: functional
Klebsiella pneumoniae [13] = experiment: Antimicrobial activity against Klebsiella pneumoniae ZJ68T expressing CTX-M-15 by CLSI method; format: functional
Klebsiella pneumoniae [14] = experiment: Antimicrobial activity against carbapenem-resistant Klebsiella pneumoniae GZ66 deficient in SHV-11, DHA-1, ompK35/36 by CLSI method; format: functional
Klebsiella pneumoniae [15] = experiment: Antimicrobial activity against carbapenem-resistant Klebsiella pneumoniae XJ81 deficient in TEM-1, SHV-12, DHA-1, aac(6')-Ib, ompK35/36 by CLSI method; format: functional
Klebsiella pneumoniae [16] = experiment: Antimicrobial activity against carbapenem-resistant Klebsiella pneumoniae SX67 deficient in SHV-2, CTX-M-14, DHA-1, qnrB6/S1, aac(6')-Ib-cr, ompK35/36 by CLSI method; format: functional
Klebsiella pneumoniae [17] = experiment: Antimicrobial activity against Klebsiella pneumoniae ZJ99T expressing KPC-2, CTX-M-3, qnrS1 by CLSI method; format: functional
Escherichia coli [18] = experiment: Antimicrobial activity against carbapenem-resistant Escherichia coli PU43 deficient in TEM-1, CTX-M-14, aac(6')-Ib, ompC/F by CLSI method; format: functional
Escherichia coli [19] = experiment: Antimicrobial activity against carbapenem-resistant Escherichia coli PU96 deficient in TEM-1, CTX-M-14, CMY-2, ompC/F by CLSI method; format: functional
Klebsiella pneumoniae [20] = experiment: Antimicrobial activity against Klebsiella pneumoniae ZJ70T expressing KPC-2 by CLSI method; format: functional
Citrobacter freundii [21] = experiment: Antimicrobial activity against Citrobacter freundii SZ63 expressing IMP-4, qnrS1by CLSI method; format: functional
Citrobacter freundii [22] = experiment: Antimicrobial activity against Citrobacter freundii SZ62 expressing IMP-4, TEM-1, CMY-2, qnrS1, aac(6')-Ib-cr by CLSI method; format: functional
Klebsiella aerogenes [23] = experiment: Antimicrobial activity against carbapenem-resistant Enterobacter aerogenes PU41 deficient in CTX-M-14, DHA-1, qnrS1, ompC DEc, ompF by CLSI method; format: functional
Escherichia coli [24] = experiment: Antimicrobial activity against Escherichia coli PU60T expressing CMY-2 by CLSI method; format: functional
Enterobacter cloacae [25] = experiment: Antimicrobial activity against carbapenem-resistant Enterobacter cloacae NJ88 deficient in CTX-M-14, ompC/F by CLSI method; format: functional
Klebsiella pneumoniae [26] = experiment: Antimicrobial activity against carbapenem-resistant Klebsiella pneumoniae PU8 deficient in SHV-11, DHA-1, aac(6')-Ib-cr, ompK35/36 by CLSI method; format: functional
Klebsiella pneumoniae [27] = experiment: Antimicrobial activity against Klebsiella pneumoniae ZJ71T expressing KPC-2 by CLSI method; format: functional
Enterobacter cloacae [28] = experiment: Antimicrobial activity against carbapenem-resistant Enterobacter cloacae SZ92 deficient in IMP-4, TEM-1, CTX-M-14, DHA-1, qnrB10/B4-like, aac(6')-Ib, ompC by CLSI method; format: functional
Klebsiella pneumoniae [29] = experiment: Antimicrobial activity against carbapenem-resistant Klebsiella pneumoniae SZ61 deficient in TEM-1, SHV-1a, CMY-2, ompK35/36 by CLSI method; format: functional
Klebsiella pneumoniae [30] = experiment: Antimicrobial activity against Klebsiella pneumoniae ZJ99 expressing KPC-2, CTX-M-3, qnrS1, ompK35 DE by CLSI method; format: functional
Klebsiella aerogenes [31] = experiment: Antimicrobial activity against Enterobacter aerogenes PU41T expressing CTX-M-14, DHA-1, qnrS1 by CLSI method; format: functional
Klebsiella pneumoniae [32] = experiment: Antimicrobial activity against Klebsiella pneumoniae GZ64 expressing IMP-4, ompK35/36 by CLSI method; format: functional
Escherichia coli [33] = experiment: Antimicrobial activity against Escherichia coli ZJ87T expressing KPC-2 by CLSI method; format: functional
Klebsiella pneumoniae [34] = experiment: Antimicrobial activity against carbapenem-resistant Klebsiella pneumoniae FZ49 deficient in IMP-8, TEM-1, SHV-11, CTX-M-14, qnrB2, aac(6')-Ib, ompK35/36 by CLSI method; format: functional
Klebsiella aerogenes [35] = experiment: Antimicrobial activity against carbapenem-resistant Enterobacter aerogenes WH85 deficient in TEM-1, CTX-M-3, ompC/F by CLSI method; format: functional
Klebsiella pneumoniae [36] = experiment: Antimicrobial activity against carbapenem-resistant Klebsiella pneumoniae PU4 deficient in SHV-1, DHA-1, ompK35/36 by CLSI method; format: functional
Klebsiella pneumoniae [37] = experiment: Antimicrobial activity against Klebsiella pneumoniae WH77 expressing IMP-4, TEM-1, SHV-14, CTX-M-3, qnrS1 by CLSI method; format: functional
Klebsiella pneumoniae [38] = experiment: Antimicrobial activity against carbapenem-resistant Klebsiella pneumoniae CY1 deficient in SHV-11, DHA-1, ompK35/36 by CLSI method; format: functional
Klebsiella pneumoniae [39] = experiment: Antimicrobial activity against carbapenem-resistant Klebsiella pneumoniae ZJ69 deficient in SHV-28, ompK35/36 by CLSI method; format: functional
Escherichia coli [40] = experiment: Antimicrobial activity against Escherichia coli C600 transconjugant WH76T expressing IMP-4, TEM-1, CTX-M-3, qnrS1 by CLSI method
Escherichia coli [41] = experiment: Antimicrobial activity against Escherichia coli C600 by CLSI method; format: functional

For `CO/N=C(\C(=O)N[C@@H]1C(=O)N2C(C(=O)O)=C(COC(C)=O)CS[C@H]12)c1csc(N)n1` [CEFOTAXIME], the MIC (Citrobacter freundii [1]) was 256 µg/mL (≈ 562 µM), the MIC (Escherichia coli [2]) was > 256 µg/mL and the MIC (Klebsiella pneumoniae [3]) was > 256 µg/mL. For the same compound, the MIC (Klebsiella pneumoniae [4]) was 128 µg/mL (≈ 281 µM), the MIC (Klebsiella pneumoniae [5]) was 256 µg/mL (≈ 562 µM) and the MIC (Klebsiella pneumoniae [6]) was 256 µg/mL (≈ 562 µM). The MIC (Klebsiella pneumoniae [7]) was 4 µg/mL (≈ 8.78 µM), the MIC (Escherichia coli [8]) was 16 µg/mL (≈ 35.1 µM) and the MIC (Klebsiella pneumoniae [9]) was > 256 µg/mL. For the same compound, the MIC (Klebsiella pneumoniae [10]) was > 256 µg/mL, the MIC (Enterobacter cloacae [11]) was > 256 µg/mL and the MIC (Enterobacter cloacae [12]) was 256 µg/mL (≈ 562 µM). For the same compound, the MIC (Klebsiella pneumoniae [13]) was > 256 µg/mL, the MIC (Klebsiella pneumoniae [14]) was 128 µg/mL (≈ 281 µM) and the MIC (Klebsiella pneumoniae [15]) was > 256 µg/mL. The MIC (Klebsiella pneumoniae [16]) was > 256 µg/mL, the MIC (Klebsiella pneumoniae [17]) was 256 µg/mL (≈ 562 µM) and the MIC (Escherichia coli [18]) was > 256 µg/mL. For the same compound, the MIC (Escherichia coli [19]) was > 256 µg/mL, the MIC (Klebsiella pneumoniae [20]) was 64 µg/mL (≈ 141 µM) and the MIC (Citrobacter freundii [21]) was > 256 µg/mL. The MIC (Citrobacter freundii [22]) was 256 µg/mL (≈ 562 µM), the MIC (Klebsiella aerogenes [23]) was > 256 µg/mL and the MIC (Escherichia coli [24]) was 16 µg/mL (≈ 35.1 µM). For the same compound, the MIC (Enterobacter cloacae [25]) was > 256 µg/mL, the MIC (Klebsiella pneumoniae [26]) was 128 µg/mL (≈ 281 µM) and the MIC (Klebsiella pneumoniae [27]) was 16 µg/mL (≈ 35.1 µM). The MIC (Enterobacter cloacae [28]) was > 256 µg/mL, the MIC (Klebsiella pneumoniae [29]) was 128 µg/mL (≈ 281 µM) and the MIC (Klebsiella pneumoniae [30]) was 128 µg/mL (≈ 281 µM). The MIC (Klebsiella aerogenes [31]) was 128 µg/mL (≈ 281 µM), the MIC (Klebsiella pneumoniae [32]) was 256 µg/mL (≈ 562 µM) and the MIC (Escherichia coli [33]) was 32 µg/mL (≈ 70.3 µM). For the same compound, the MIC (Klebsiella pneumoniae [34]) was > 256 µg/mL, the MIC (Klebsiella aerogenes [35]) was > 256 µg/mL and the MIC (Klebsiella pneumoniae [36]) was 16 µg/mL (≈ 35.1 µM). It also gave an MIC (Klebsiella pneumoniae [37]) of 256 µg/mL (≈ 562 µM), an MIC (Klebsiella pneumoniae [38]) of 128 µg/mL (≈ 281 µM) and an MIC (Klebsiella pneumoniae [39]) of 64 µg/mL (≈ 141 µM). For the same compound, the MIC (Escherichia coli [40]) was 256 µg/mL (≈ 562 µM) and the MIC (Escherichia coli [41]) was 0.13 µg/mL (≈ 0.285 µM).
With `CO[C@@]1(NC(=O)Cc2cccs2)C(=O)N2C(C(=O)O)=C(COC(N)=O)CS[C@@H]21` [CEFOXITIN] the MIC (Citrobacter freundii [1]) was > 256 µg/mL, the MIC (Escherichia coli [2]) was 64 µg/mL (≈ 150 µM) and the MIC (Klebsiella pneumoniae [3]) was 256 µg/mL (≈ 599 µM). For the same compound, the MIC (Klebsiella pneumoniae [4]) was > 256 µg/mL, the MIC (Klebsiella pneumoniae [5]) was > 256 µg/mL and the MIC (Klebsiella pneumoniae [6]) was > 256 µg/mL. The MIC (Klebsiella pneumoniae [7]) was 64 µg/mL (≈ 150 µM), the MIC (Escherichia coli [8]) was 128 µg/mL (≈ 299 µM) and the MIC (Klebsiella pneumoniae [9]) was 128 µg/mL (≈ 299 µM). For the same compound, the MIC (Klebsiella pneumoniae [10]) was 32 µg/mL (≈ 74.9 µM), the MIC (Enterobacter cloacae [11]) was > 256 µg/mL and the MIC (Enterobacter cloacae [12]) was > 256 µg/mL. The MIC (Klebsiella pneumoniae [13]) was 16 µg/mL (≈ 37.4 µM), the MIC (Klebsiella pneumoniae [14]) was > 256 µg/mL and the MIC (Klebsiella pneumoniae [15]) was > 256 µg/mL. For the same compound, the MIC (Klebsiella pneumoniae [16]) was > 256 µg/mL, the MIC (Klebsiella pneumoniae [17]) was 32 µg/mL (≈ 74.9 µM) and the MIC (Escherichia coli [18]) was 128 µg/mL (≈ 299 µM). The MIC (Escherichia coli [19]) was > 256 µg/mL, the MIC (Klebsiella pneumoniae [20]) was 32 µg/mL (≈ 74.9 µM) and the MIC (Citrobacter freundii [21]) was > 256 µg/mL. The MIC (Citrobacter freundii [22]) was > 256 µg/mL, the MIC (Klebsiella aerogenes [23]) was > 256 µg/mL and the MIC (Escherichia coli [24]) was 128 µg/mL (≈ 299 µM). The MIC (Enterobacter cloacae [25]) was > 256 µg/mL, the MIC (Klebsiella pneumoniae [26]) was > 256 µg/mL and the MIC (Klebsiella pneumoniae [27]) was 32 µg/mL (≈ 74.9 µM). The MIC (Enterobacter cloacae [28]) was > 256 µg/mL, the MIC (Klebsiella pneumoniae [29]) was > 256 µg/mL and the MIC (Klebsiella pneumoniae [30]) was 32 µg/mL (≈ 74.9 µM). The MIC (Klebsiella aerogenes [31]) was 256 µg/mL (≈ 599 µM), the MIC (Klebsiella pneumoniae [32]) was > 256 µg/mL and the MIC (Escherichia coli [33]) was 64 µg/mL (≈ 150 µM). For the same compound, the MIC (Klebsiella pneumoniae [34]) was > 256 µg/mL, the MIC (Klebsiella aerogenes [35]) was 256 µg/mL (≈ 599 µM) and the MIC (Klebsiella pneumoniae [36]) was > 256 µg/mL. The MIC (Klebsiella pneumoniae [37]) was > 256 µg/mL, the MIC (Klebsiella pneumoniae [38]) was > 256 µg/mL and the MIC (Klebsiella pneumoniae [39]) was > 256 µg/mL. The MIC (Escherichia coli [40]) was > 256 µg/mL and the MIC (Escherichia coli [41]) was 16 µg/mL (≈ 37.4 µM).
